The values that follow come from patent US6514911B1, “Substituted oxadiazines useful as pesticides” (Uniroyal Chemical Company, Inc., priority 2002, dated 2003).

What all share (type): in vivo
Assay [1] has as its system velvetleaf (Abutilon theophrasti Medik.) (VL). In words: Preemergence herbicide test, soil drench, velvetleaf. Particulars: 10 lbs/A (11.2 kg/ha) soil drench, two weeks after treatment, vs untreated checks; for pest or weed control at 11208.5 g/ha: Abutilon theophrasti, 336 h, read-out: Percent Weed Control VL. How it is done:
(§1) To illustrate the effectiveness of the previously described substituted oxadiazines of this invention as preemergence herbicides, 300 mg of the chemical was dissolved in a composition comprising 10 mL acetone to which 30 mg of tile emulsifying agent, ethoxylated sorbitan monolaurate, was added. The solution was diluted to 100 mL with distilled water. Ten milliliters of this 3000 ppm solution was diluted to 250 ppm with distilled water. The chemical was applied at the rate of 10 pounds/acre (11.2 kg/ha) by drenchings 46 mL of the 250 ppm solution on the surface of soil in 4½ inch (11.25 cm) plastic pots wherein seeds of the following weeds had been planted: velvetleaf (Abutilon theophrasti Medik.) (VL), The percent control of the weeds compared to untreated checks was determined two weeks after treatment. TABLE 1 summarizes the results achieved with compounds formulated as indicated above, and the data clearly indicate the good to excellent herbicidal efficacy of compositions of this invention.

Assay [2] relates to prickly sida (Sida spinosa L.) (PS). In words: Preemergence herbicide test, soil drench, prickly sida. As to conditions: two weeks after treatment. Here is the method:
To illustrate the effectiveness of the previously described substituted oxadiazines of this invention as preemergence herbicides, 300 mg of the chemical was dissolved in a composition comprising 10 mL acetone to which 30 mg of tile emulsifying agent, ethoxylated sorbitan monolaurate, was added. The solution was diluted to 100 mL with distilled water. Ten milliliters of this 3000 ppm solution was diluted to 250 ppm with distilled water. […]
prickly sida (Sida spinosa L.) (PS),
(§2) The percent control of the weeds compared to untreated checks was determined two weeks after treatment. TABLE 1 summarizes the results achieved with compounds formulated as indicated above, and the data clearly indicate the good to excellent herbicidal efficacy of compositions of this invention.

The subject of assay [3] is tall morningglory (Ipomoea purpurea (L.) Roth) (TM). In words: Preemergence herbicide test, soil drench, tall morningglory. Particulars: 10 lbs/A (11.2 kg/ha) soil drench, two weeks after treatment, vs untreated checks; for pest or weed control at 11208.5 g/ha: Ipomoea, 336 h, read-out: Percent Weed Control TM. How it is done: as §1, with “tall morningglory (Ipomoea purpurea (L.) Roth) (TM),” for “velvetleaf (Abutilon theophrasti Medik.) (VL),”

In assay [4] the test system is barnyardgrass (Echinochloa crus-galli (L.) Beauv.) (BG). In words: Preemergence herbicide test, soil drench, barnyardgrass. As to conditions: two weeks after treatment. How it is done: as §1, with “barnyardgrass (Echinochloa crus-galli (L.) Beauv.) (BG), and” for “velvetleaf (Abutilon theophrasti Medik.) (VL),”
The test system of assay [5] is switchgrass (Panicum virgahim L.) (SG). The assay is described as follows: Preemergence herbicide test, soil drench, switchgrass. Particulars: two weeks after treatment. Here is the method:
as §1, with “planted:” for “planted: velvetleaf (Abutilon theophrasti Medik.) (VL), The percent control of the weeds compared to untreated checks was determined two weeks after treatment. TABLE 1 summarizes the results achieved with compounds formulated as indicated above, and the data clearly indicate the good to excellent herbicidal efficacy of compositions of this invention.”
switchgrass (Panicum virgahim L.) (SG),
as §2

In assay [6] the test system is green foxtail (Setaria virdis (L.) Beauv.) (GF). In words: Preemergence herbicide test, soil drench, green foxtail. As to conditions: two weeks after treatment. Here is the method:
as §1, with “41⁄2” for “4½”, “green foxtail (Setaria […].) Beauv.) (GF).” for “velvetleaf (Abutilon theophrasti Medik.) (VL),”

Where [7] appears, read: Sida spinosa, 336 h, 10 lbs/A (11.2 kg/ha) soil drench, vs untreated checks, read-out: Percent Weed Control PS.
Setting [8] is: Echinochloa crus-galli, 336 h, 10 lbs/A (11.2 kg/ha) soil drench, vs untreated checks, read-out: Percent Weed Control BG.
Where [9] appears, read: Panicum, 336 h, 10 lbs/A (11.2 kg/ha) soil drench, vs untreated checks, read-out: Percent Weed Control SG.
Where [10] appears, read: Setaria, 336 h, 10 lbs/A (11.2 kg/ha) soil drench, vs untreated checks, read-out: Percent Weed Control GF.
Where [11] appears, read: 10 lbs/A (11.2 kg/ha) soil drench, vs untreated checks.
[12] abbreviates: 5 lbs/A (footnote for 32 and 33).

Take `FC(F)(F)C1=NC(C(F)(F)F)(C(F)(F)F)N=C(c2ccccc2)O1` [Compound 1, 2-phenyl-4,4,6-tris(trifluoromethyl)-4H-1,3,5-oxadiazine]: the pest or weed control at 11208.5 g/ha in assay [1] turned out to be 100%; in assay [2] (setting [7]), 100%; in assay [3], 100%; in assay [4] (setting [8]), 0%; in assay [5] (setting [9]) it was 0%; in assay [6] (setting [10]) it was 0%.
Take `FC(F)(F)C1=NC(C(F)(F)F)(C(F)(F)F)N=C(c2ccc(Br)cc2)O1` [Compound 2, 2-(4-bromophenyl)-4,4,6-tris(trifluoromethyl)-4H-1,3,5-oxadiazine]: the pest or weed control at 11208.5 g/ha in assay [1], in assay [2] (setting [7]), in assay [3], in assay [4] (setting [8]), in assay [5] (setting [9]) and in assay [6] (setting [10]) was 100% each time.
Regarding `Fc1ccccc1C1=NC(C(F)(F)F)(C(F)(F)F)N=C(C(F)(F)F)O1` [Compound 3, 2-(2-fluorophenyl)-4,4,6-tris(trifluoromethyl)-4H-1,3,5-oxadiazine], the pest or weed control at 11208.5 g/ha came out at 100% in assay [1]; 0% in assay [2] (setting [7]); 0% in assay [3]; 0% in assay [4] (setting [8]); 30% in assay [5] (setting [9]); 40% in assay [6] (setting [10]).
In the case of `FC(F)(F)C1=NC(C(F)(F)F)(C(F)(F)F)N=C(c2cccc(C(F)(F)F)c2)O1` [Compound 7, 2,4,4-tris(trifluoromethyl)-6-{(3-trifluoromethyl)phenyl}-4H-1,3,5-oxadiazine], the “Percent Weed Control VL” value in assay [1] is 100%. For the same molecule, the “Percent Weed Control PS” value in assay [2] (setting [11]) is 100%. In addition, the “Percent Weed Control TM” value in assay [3] was found to be 100%. Besides, the “Percent Weed Control BG” value in assay [4] (setting [11]) came to 100%. Moreover, the “Percent Weed Control SG” value in assay [5] (setting [11]) is on record as 100%. In assay [6] (setting [11]), the “Percent Weed Control GF” value worked out at 100%.
For the molecule `FC(F)(F)Oc1ccc(C2=NC(C(F)(F)F)(C(F)(F)F)N=C(C(F)(F)F)O2)cc1` [Compound 8, 2-{4-(trifluoromethoxy)phenyl}-4,4,6-tris(trifluoromethyl)-4H-1,3,5-oxadiazine], the pest or weed control at 11208.5 g/ha in assay [1], in assay [2] (setting [7]), in assay [3], in assay [4] (setting [8]), in assay [5] (setting [9]) and in assay [6] (setting [10]) was 100% each time.
Turning to `Nc1ccc(C2=NC(C(F)(F)F)(C(F)(F)F)N=C(C(F)(F)F)O2)cc1` [Compound 9, 2-(4-aminophenyl)-4,4,6-tris(trifluoromethyl)-4H-1,3,5-oxadiazine], the pest or weed control at 11208.5 g/ha in assay [1] was found to be 90%; in assay [2] (setting [7]), 0%; in assay [3], 0%; in assay [4] (setting [8]), 0%; in assay [5] (setting [9]), 90%; in assay [6] (setting [10]), 90%.
Take `O=[N+]([O-])c1ccc(C2=NC(C(F)(F)F)(C(F)(F)F)N=C(C(F)(F)F)O2)cc1` [Compound 10, 2-(4-nitrophenyl)-4,4,6-tris(trifluoromethyl)-4H-1,3,5-oxadiazine]: the pest or weed control at 11208.5 g/ha came to 80% in assay [1]; 80% in assay [2] (setting [7]); 50% in assay [3]; 80% in assay [4] (setting [8]); 80% in assay [5] (setting [9]); 80% in assay [6] (setting [10]).
As to `FC(F)(F)C(F)(F)C1=NC(C(F)(F)F)(C(F)(F)F)N=C(c2ccccc2)O1` [Compound 11, 2-(pentafluoroethyl)-6-phenyl-4,4-bis(trifluoromethyl)-4H-1,3,5-oxadiazine], the pest or weed control at 11208.5 g/ha is 100% in assay [1]; 100% in assay [2] (setting [7]); 100% in assay [3]; 0% in assay [4] (setting [8]); 0% in assay [5] (setting [9]); 50% in assay [6] (setting [10]).
Take `O=Cc1ccc(C2=NC(C(F)(F)F)(C(F)(F)F)N=C(C(F)(F)C(F)(F)F)O2)cc1` [Compound 31, 4-{6-(pentafluoroethyl)-4,4-bis(trifluoromethyl)-4H-1,3,5-oxadiazin-2-yl}-benzaldehyde]: in assay [4] (setting [8]), the pest or weed control at 11208.5 g/ha came out at 100%.
Take `FC(F)C1=NC(C(F)(F)F)(C(F)(F)F)N=C(c2cccc(C(F)(F)F)c2)O1` [Compound 32, 2-(difluoromethyl)-4,4-bis(trifluoromethyl)-6-(3-trifluoromethylphenyl)-4H-1,3,5-oxadiazine]: the pest or weed control at 5604.25 g/ha in assay [2] (Sida spinosa, pre-emergence, 336 h, 5 lbs/A (footnote for 32 and 33), read-out: Percent Weed Control PS) amounted to 100%; in assay [4] (Echinochloa crus-galli, pre-emergence, 336 h, 5 lbs/A (footnote for 32 and 33), read-out: Percent Weed Control BG), 80%; in assay [5] (Panicum, pre-emergence, 336 h, 5 lbs/A (footnote for 32 and 33), read-out: Percent Weed Control SG), 0%; in assay [6] (Setaria, pre-emergence, 336 h, 5 lbs/A (footnote for 32 and 33), read-out: Percent Weed Control GF), 100%.
In the case of `FC(F)C1=NC(C(F)(F)F)(C(F)(F)F)N=C(c2ccc(C(F)(F)F)cc2)O1` [Compound 33, 21-(dfluoromethyl)-4,4-bis(trifluoromethyl)-6-(4-trifluoromethylphenyl)-4H-1,3,5-oxadiazine], the “Percent Weed Control PS” value in assay [2] (setting [12]) stood at 100%. Also, the “Percent Weed Control BG” value in assay [4] (setting [12]) amounted to 20%. In addition, the “Percent Weed Control GF” value in assay [6] (setting [12]) is 40%.
